Reference: paper PMC3575848 (Nucleic Acids Research, 2012)

How the values were obtained:
Assay type in all cases: binding
[1] = target: T1, EcoDRS (Escherichia coli, UniProt P21889); assay: isothermal titration calorimetry
[2] = target: T2, HsaDRS2 (Homo sapiens, UniProt Q6PI48); assay: thermal shift by dynamic light scattering and differential scanning fluorimetry; conditions: protein 3 mg/ml, temperature gradient
T2 sequence (Q6PI48 41-645): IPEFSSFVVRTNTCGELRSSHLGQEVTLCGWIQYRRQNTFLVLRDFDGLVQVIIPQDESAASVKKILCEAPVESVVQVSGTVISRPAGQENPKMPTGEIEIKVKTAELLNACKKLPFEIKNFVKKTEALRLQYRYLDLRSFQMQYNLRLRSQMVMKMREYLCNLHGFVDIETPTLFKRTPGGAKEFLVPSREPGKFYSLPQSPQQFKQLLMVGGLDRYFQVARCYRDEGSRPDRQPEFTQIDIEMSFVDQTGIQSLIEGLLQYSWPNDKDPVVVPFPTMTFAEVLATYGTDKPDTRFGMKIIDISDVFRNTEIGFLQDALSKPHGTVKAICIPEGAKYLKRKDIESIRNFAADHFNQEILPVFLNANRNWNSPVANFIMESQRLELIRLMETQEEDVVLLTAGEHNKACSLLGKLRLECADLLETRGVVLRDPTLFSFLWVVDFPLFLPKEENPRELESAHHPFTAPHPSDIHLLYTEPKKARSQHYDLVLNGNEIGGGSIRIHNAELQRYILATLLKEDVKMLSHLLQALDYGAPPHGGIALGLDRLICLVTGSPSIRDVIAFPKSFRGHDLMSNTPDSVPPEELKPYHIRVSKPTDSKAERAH

[3] = target: T2, HsaDRS2; assay: isothermal titration calorimetry
[4] = target: T1, EcoDRS; assay: thermal shift by dynamic light scattering; conditions: protein 3 mg/ml, temperature gradient

T1 sequence (P21889 whole entry): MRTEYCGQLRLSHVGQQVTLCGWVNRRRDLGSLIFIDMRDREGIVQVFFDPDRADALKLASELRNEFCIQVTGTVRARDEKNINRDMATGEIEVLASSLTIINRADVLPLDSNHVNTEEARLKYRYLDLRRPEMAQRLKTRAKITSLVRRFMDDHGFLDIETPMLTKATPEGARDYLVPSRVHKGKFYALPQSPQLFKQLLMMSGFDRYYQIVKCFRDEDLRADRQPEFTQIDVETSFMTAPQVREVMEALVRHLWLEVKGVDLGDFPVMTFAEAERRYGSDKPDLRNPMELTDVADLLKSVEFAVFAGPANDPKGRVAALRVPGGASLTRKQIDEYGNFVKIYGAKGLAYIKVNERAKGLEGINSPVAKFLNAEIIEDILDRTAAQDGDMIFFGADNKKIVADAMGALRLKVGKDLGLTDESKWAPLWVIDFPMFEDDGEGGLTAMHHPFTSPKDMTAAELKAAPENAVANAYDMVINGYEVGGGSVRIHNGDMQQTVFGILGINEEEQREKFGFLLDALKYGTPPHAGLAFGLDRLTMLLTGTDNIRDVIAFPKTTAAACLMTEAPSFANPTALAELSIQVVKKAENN

Kd [1]: 2.95 ± 1.34 nM
Kd [3]: 17.5 ± 12 nM
Structure (SMILES): Nc1ncnc2c1ncn2[C@@H]1O[C@H](COS(=O)(=O)NC(=O)[C@@H](N)CC(=O)O)[C@@H](O)[C@H]1O [Asp–AMS, 5′-O-[N-(L-aspartyl)sulfamoyl] adenosine]
Tm [2]: Significant stabilization was observed in the presence of Asp–AMS
Tm [4]: only Asp–AMS (dashed grey line) influences the thermostability of the two enzymes positively
